The text below walks through data of patent publication US20230312639A1, “GPER PROTEOLYTIC TARGETING CHIMERAS” (University of Iowa Research Foundation, priority 2020, published 2023).

One test deals with HiBiT-GPER (Homo sapiens, UniProt Q99527). The test can be described thus: Nano-BiT binary luminescence complementation, transfected HEK-293 cells, total receptor. It counts as cell-based. As for the experimental part:
FIG. 26. […] HEK-293 cells (ERα^-, GPER^-) were transiently transfected with 50 ng HiBiT-GPER or HiBiT-ER plus pcDNA3.1(+) zeo carrier plasmid. […] (C) Histogram depicting total HiBiT-GPER and HiBiT-ER following a 1-hour treatment at […] drug or control. […] Results shown represent the mean ± S.E. of three independent experiments.
FIG. 28. […] Total receptor was then measured by binary luminescence complementation in detergent-permeabilized cells. […] Total receptor was then quantified by binary luminescence complementation. Representative luminescence data and mean values and SDs derived from three independent experiments are shown.
Transient transfections and binary Nano-Bit ™ luminescence assays. Total HiBiT-tagged GPER or ER estrogen receptors were detected in detergent-permeabilized cells by binary luminescence complementation with recombinant LgBit and substrate using the Nano-Glo HiBiT Extracellular Detection system kit (Promega Corporation, Madison, Wl). In brief, HEK293 cells (0.75 × 10^6) were seeded in 35 mm tissue culture dishes and 24 hours later were transiently transfected with 50 ng of HiBiT-GPER or HiBiT-ERa and 950 ng of pcDNA3.1(+) zeo carrier plasmid using Lipofectamine 2000 (Invitrogen, Carlsbad, CA). The next day transfected cells were harvested by trypsinization and seeded at a density of 10^4 cells/well in 96-well poly-L-lysine-coated Greiner white-bottomed microplates. On the following day, cell culture media was aspirated and replaced with 100 µL of serum-free PRF-DF12 containing E2-PROTAC, partial-PROTAC, or vehicle at various concentrations and for indicated time intervals at 37° C. […] Following treatment, total HiBiT-tagged receptor was measured in cells which were permeabilized in 0.05% Triton X-100 using HiBiT complementation reagent consisting of LgBiT protein and Nano-Gio® HiBiT substrate. Luminescence was measured using the Infinite 200 PRO multimode microplate reader from Tecan (Raleigh, NC) and reported as Relative Luminescent Units (RLU). All samples were measured in triplicate and expressed as the mean value plus or minus standard deviation.

In a further test the target is T1, HA-GPER (Homo sapiens, UniProt Q99527).
T1 construct: expressed in transfected cells
T1 sequence (Q99527 whole entry): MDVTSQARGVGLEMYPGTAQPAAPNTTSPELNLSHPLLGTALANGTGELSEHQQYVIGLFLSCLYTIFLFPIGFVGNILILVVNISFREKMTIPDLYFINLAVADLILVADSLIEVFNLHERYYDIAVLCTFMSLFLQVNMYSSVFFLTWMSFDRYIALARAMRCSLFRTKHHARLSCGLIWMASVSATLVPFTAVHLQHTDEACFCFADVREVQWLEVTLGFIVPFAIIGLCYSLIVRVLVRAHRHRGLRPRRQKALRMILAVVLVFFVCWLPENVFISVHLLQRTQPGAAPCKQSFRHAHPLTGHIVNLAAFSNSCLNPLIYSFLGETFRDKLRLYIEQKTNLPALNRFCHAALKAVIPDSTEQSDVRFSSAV
Briefly: Immunofluorescence with HA antibody, stably transfected HEK293 cells. It counts as cell-based. Particulars: 100 µM, 1 hour.

Another test concerns HCC1806 cells. The test can be described thus: Cell cycle analysis, propidium iodide, flow cytometry. It counts as cell-based, human. Particulars: HCC1806, 10 µM, 24 hours. The source says:
(§1) FIG. 30. E2-PROTACs promote estrogen receptor-dependent G2/M arrest. E2-PROTAC induced G2/M arrest in human breast cancer cell lines expressing membrane and/or intracellular estrogen receptors. […] Fixed cells were permeabilized and dyed with propidium iodide (PI). Cell cycle data were acquired on a flow cytometer and analyzed using Flow-Jo software. Data are expressed as mean ± SEM (n=3). The percentage of cells in each phase were plotted using Prism 8.0.
(§2) Cell cycle analysis. […] Following treatment, cells were harvested by trypsinization and washed twice in ice-cold PBS. Cells were then fixed in 70% ethanol at 4° C. for 30 minutes. Fixed cells were pelleted by centrifugation at 230 g for 5 minutes and the cell pellet was incubated in Krishan’s solution (3.8 mM sodium citrate (Fisher Scientific), 0.014 mM propidium iodide (AnaSpec, Fermont, Ca), 1% NP-40 (Sigma) and 2.0 mg/mL RNase A (Fisher Scientific)) for 30 minutes at 37° C. Cells were then centrifuged and washed in PBS prior to analysis using a FacScallibur flow cytometer. The data from flow cytometry were subjected to further analysis by CellQuest software version 3.3. DNA histograms generated indicate the fractions of the cell population in the sub-G1, G0-G1, S, or G2/M phase of the cell cycle.
(§3) To investigate the biological effect associated with decreased cell viability, cell cycle analysis was performed on the same four cell lines using propidium iodide staining and measured by flow cytometry 24 hours after treatment of cells with 10 µM E2-PROTAC or partial PROTAC (FIG. 30).

Another test has as its system MCF-7 cells. The description is as above. To be noted: MCF-7, 10 µM, 24 hours. It counts as cell-based, human.
Source text: as §1, §2, §3

The subject of the next test is MDA-MB-231 cells. The test is described as above. It is filed as cell-based, human. To be noted: MDA-MB-231, 10 µM, 24 hours.
Source text: as §1, §2, §3

A further test relates to SKBR3 cells. The test is described as above. It counts as cell-based, human. Particulars: SKBR3, 10 µM, 24 hours.
Source text: as §1, §2, §3

The structures appear in SMILES notation.

Sequence of HiBiT-GPER (Q99527 whole entry): as above

Regarding `Cc1ncsc1-c1ccc(CNC(=O)C2CC(O)CN2C(=O)C(NC(=O)COCCOCCOCCOCC(=O)OC2CCC3C4CCc5cc(O)ccc5C4CCC23C)C(C)(C)C)cc1` (centres unmarked) [UI-EP001], the “reduction in expression level of recombinant GPER” value at HiBiT-GPER (100 µM, as early as 1 h) is 50%. The DC50 at HiBiT-GPER (1 hour treatment, detergent-permeabilized cells, read-out: DC50 (concentration required for 50% protein degradation), GPER) was 100 µM. Also, the “change of HiBiT-GPER” value on HiBiT-GPER (increasing doses, 1 hour, partial PROTAC 100 µM) is “dose-dependent decrease”. The “degradation of HA-GPER” value at HA-GPER was “specific degradation of HA-GPER was measured”. Also, the cell cycle distribution entry with HCC1806 cells is listed as “dramatic increase in the G2/M peak”; in the test with MCF-7 cells it was “dramatic increase in the G2/M peak”; in the test on MDA-MB-231 cells, “This shift was not observed”; in the test on SKBR3 cells it was “dramatic increase in the G2/M peak”.
